In data set [1] the test system is angiogenesis induced by hFGF-B in the CAM. The data set can be described thus: Chick chorioallantoic membrane (CAM) assay, 14C-proline incorporation into collagenous protein. Type of data set: in vivo, chick embryo. On the procedure:
BTO-964 [methyl 3,5-diiodo-4(4'-methoxyphenoxy) benzaldehyde], and BTO-967 [methyl 3,5-diiodo-4(4'-methoxyphenoxy)-thiobenzoate] were tested in the CAm assay. The endpoint of the CAM assay was a quantiative determination of basement membrane biosynthesis by measuring the incorporation of ^14 C-proline into Type IV collagenous protein.
The CAM assay involves the development of live chick embryos in Petri dishes under special sterile conditions. Therefore, only limited numbers of embryos can be used for evaluation of compounds in a single experiment. BTO-964 and BTO-967 was tested in separate assays. A known angiogenesis inhibitor, 2-methoxyestradiol (2-ME), was used as the positive control, and human fibroblast growth factor (hFGF) was used to induce angiogenesis in the CAM.
For testing, a minimum amount of acetone-methanol (1:1) was added to the test compounds for sterilization. The acetone-methanol mixture was then evaporated to dryness in a sterile hood. The compounds were dissolved in dimethyl sulfoxide (DMSO) first and then diluted with saline containing methylcellulose. The final concentrations were 2% DMSO and 0.5% methylcellulose. all test solutions were added to each CAM in […] aliquots.
Fresh fertile eggs were incubated for three days in a standard egg incubator. On Day 3, eggs were cracked under sterile conditions and embryos were placed in 20×100 mm plastic Petri dishes and cultivated at 37° C. in an embryo incubator with a water reservoir on the bottom shelf. Air was continuously bubbled into the water reservoir by using a small pump so that the humidity in the incubator was kept constant. Observations were made daily to ensure that all embryos were healthy. Dead or unhealthy embryos were removed from the incubator immediately to avoid contamination. On Day 9, a sterile silicone ring cup was placed on each CAM and 0.5 mCi of ^14 C-proline with or without the test compound plus 2.5 ng of hFGF dissolved in saline containing 0.5% methylcellulose was delivered into each ring cup in a sterile hood. 2-ME was tested in parallel to serve as a reference compound. After addition of test materials, the embryos were returned to the incubator and cultivation continued. On Day 12, all embryos were transferred to a cold room at 4-10° C.
Using the procedure outlined in Maragoudakis, et al., (1989) J. Pharm. Exp. Ther. 251:679-682, the embryos were placed on ice and a piece of CAM 10 mm in diameter was cut off under each ring cup and placed in a separate tube. To each tube was added 1.0 ml of phosphate-buffered saline (PBS, pH 7.3) containing 0.11 mg cycloheximide and 0.17 mg dipyridyl. The tubes were placed in a boiling water bath for 10 min and then cooled to room temperature. The PBS in each tube was discarded after centrifugation at 3000×G for 10 min. The CAM residue was washed once with 3 ml of 15% TCA and then three times with 3 ml of 5% TCA. Centrifugation was carried out as described above between each washing. At this point all non-protein bound radioactivity was removed, and the CAM containing the newly synthesized ^14 C-collagenous protein was suspended in 0.9 ml of 0.1 N NaOH and 1.1 ml of HEPES buffer at pH 7.4. The pH of the sample was neutralized with 0.8 N HCl, using phenol red as indicator.
To digest the ^14 C-collagenous protein, 7.5 units of collagenase and 500 nmol of calcium chloride in […] of HEPES buffer was added to the above samples, and mixtures were incubated at 37° C. for 4 h. The reaction was stopped by adding 1.0 ml of 20% TCA containing 5 mg of tannic acid into each tube. After vortex mixing, the samples were centrifuged at 3000×G for 10 min. An aliquot of the clear supernatant was taken for scintillation counting to quantitate the radiolabeled tripeptides corresponding to basement membrane collagen and other collagenous materials synthesized by the CAM from ^14 C-proline. The CAM pellets in each tube were solubilized in 0.5 ml of 1.0 N NaOH by boiling in a water bath for 5 min. […]

Data set [2] relates to Human leukemia (HL60) cells. The data set can be described thus: In vitro metabolism in human leukemia cells with and without rat liver S9. Type of data set: cell-based. As to conditions: 4 hr incubation with vs without rat liver S9, cells counted 3 days later (FIG. 2). The method, then: FIG. 2 illustrates the in vitro metabolism of BTO-956, 964, 966, and 967 in human leukemia cells. In this experiments, human leukemia cells (HL60) were incubated for 4 hours in the presence of BTO-956, BTO-964, BTO-966 or BTO-967, with (closed symbols) and without (open symbols) rat liver microsome fraction S9. Following the 4 hr exposure to drug and S9, the cells were rinsed and replated at a density of 2×10^5 cells per ml, and counted 3 days later.
To test for either of these possibilities, the compounds, i.e., BTO-956, BTO-964, BTO-966 and BTO-967, were incubated with a microsomal enzyme fraction, referred to as S9.
Human leukemia (HL60) cells were used to evaluate drug metabolism. Exposure to the test article was performed in the presence and absence of S9, prepared from the liver of adult male rats given a single intraperitoneal injection of Arachlor 1254 (500 mg/kg). The S9 consisted of the 9000×G supernatant of liver homogenized in 0.25 M sucrose-100 mM phosphate buffer (pH 7.4) (Molecular Toxicology, Inc.). Cofactors were 1 mM NADP and 5 mM sodium isocitrate. On the day of exposure, cultures of cells, with or without the metabolism mixture, were incubated for 4 hours in RPMI containing 5% FBS and graded doses of BTO956, 964, 966, or 967. The test agents were prepared in serial dilutions from 10 mM stock solutions in DMSO yielding a dose range 100 μM, 50 μM, 25 μM, 10 μM and 5 μM concentrations and a final DMSO concentration of 1%. In each case, cells were maintained at 37° C. under 5 percent CO2 in air. The experiments were conducted in 6-well tissue culture plates (Falcon) with an initial seeding density of 2×10^6 cells per well in 2 ml aliquots. The test compounds were added immediately to the medium in duplicate cultures. Treatment solution was removed by a series of low-speed centrifugations to pellet the cells, followed by removal of the supernatant and resuspension of cells in fresh RPMI containing 10% FBS.

A further data set has as its system Ovcar-3 (ovarian). Kind of data set: In vitro cytotoxicity screen, alamar Blue assay. The format is cell-based. Conditions: Homo sapiens, 168 h, 7 days post exposure. On the procedure:
(§1) Human tumor cell lines were exposed continuously to varying concentrations of test agents, i.e., BTO-956, BTO-964, BTO966 and BTO-967) and the viability of the cells was measured at set time points (1, 3, and 7 days) using the alamar Blue™ assay. […] This fluorescence can be measured with a fluorimeter, whereby the signal is directly proportional to cell number.
(§2) Various tumor cell lines of human origin representing a wide diversity of cancer pheno- and genotypes were exposed in vitro to the agents to evaluate the drug's effective range. Tumor lines screened included MDA MB 231 (breast), MCF-7 (breast), MDA MB 468 (breast), Siha (squamous cell carcinoma), A549 (non-small cell lung), HL-60 (leukemia), Ovcar-3 (ovarian). The test agents were prepared in serial dilutions from 10 mM stock solutions in DMSO yielding a 66-fold dose range of 20 μM, 10 μM, 3 μM, 1 μM and 0.3 μM concentrations. In each case, cells were maintained at 37° C. under 5 percent CO2 in air. All cell lines were incubated in Dulbecco's modified Eagle medium (DMEM) supplemented with 10% heat-inactivated fetal bovine serum and graded doses of BTO-956, 964, 966, or 967. 5-Fluorouracil (5-FU) was included as a positive control in experiments with two of the cell lines. The experiments were conducted in 96-well tissue culture plates (Falcon) with an initial seeding density of 1000 cells per well in 250 μl aliquots. The next day, medium was replaced with 100 μl of drug dilutions in triplicate.
(§3) After a 7 day exposure to the various agents, the alamarBlue dye was diluted to 20% in DMEM, and 100 μl was added to each well. The cells were incubated for 8 hours until obvious color changes indicated sufficient amounts of reduced dye for quantitation. Relative cell number was evaluated by florimetry on a Millipore 2300 CytoFluor fluorescence measurement system. Measurements were taken directly from 96-well plates after excitation at 560 nm with concomitant emission at 590 nm.

Data set [3] deals with Siha (squamous cell carcinoma). The data set can be described thus: In vitro cytotoxicity screen, alamar Blue assay. Type of data set: cell-based. Conditions: Homo sapiens, 168 h, 7 days post exposure. The method, then:
as §1, §2, §3

Data set [4] relates to A549 (non-small cell lung). Kind of data set: In vitro cytotoxicity screen, alamar Blue assay. The format is cell-based. As to conditions: Homo sapiens. The method, then:
as §1, §2, §3

A further data set relates to MDA MB 231 (breast). The data set can be described thus: In vitro cytotoxicity screen, alamar Blue assay. The format is cell-based. Conditions: Homo sapiens. On the procedure:
as §1, §2, §3

The next data set relates to MDA MB 468 (breast). Kind of data set: In vitro cytotoxicity screen, alamar Blue assay. The format is cell-based. Conditions: Homo sapiens, 168 h, 7 days post exposure. The method, then:
as §1, §2, §3

For another data set, the system named is MCF-7 (breast). The data set can be described thus: In vitro cytotoxicity screen, alamar Blue assay. As to conditions: Homo sapiens, MCF7, 168 h, 7 days post exposure. Type of data set: cell-based. The method, then:
as §1, §2, §3

For data set [5], the system named is TNF-α mRNA. Kind of data set: cells. Conditions: Mus musculus, Macrophage, 3 h, read-out: inhibition of TNF-α mRNA accumulation.
Protocol: (§4) The murine macrophage PU5-1.8 cell line are purchased from the American Type Culture Collection (ATCC, Rockville, Md.). Cells are grown in DMEM medium supplemented with 100 mM sodium pyruvate, 0.1 mM nonessential amino acids, 2 mM glutamine and 5 % fetal bovine serum (Life Technologies, Staten Island, N.Y.). Cells are maintained in a humidified atmosphere of 5% CO2 -95% air at 37° C. Cells are passaged twice weekly by firmly tapping the side of the flask to dislodge the adherent cells. Both nonadherent and adherent cells are passaged. Exponentially growing cells are seeded at 5×10^5 /mL, 4 mL per 60-mm dish 24 h prior to the experiment. Test compounds are delivered in 1 mL volumes of the medium added to each dish at the start of the experiment. All dishes are incubated at 37° C. in 5% CO2 -95% air for 3 h.
(§5) The Tumor Necrosis Factor (TNF-α) cDNA is obtained from the ATCC (Rockville, Md.). [α-^32 P]-dCTP (250 μCi) and nylon membranes (Hybond N) are obtained from Amersham (Arlington Heights, Ill.). […] Lipopolysaccharide (LPS) from Escherichia coli is purchased from DIFCO Laboratories (Detroit, Mich.). All plastic supplies are purchased from VWR Scientific products (San Francisco, Calif.). […]
(§6) Hybridized bands are quantified by analyzing the images obtained by using a video densitometer (Applied Imaging Corporation, Santa Clara, Calif.). […]
The test system of data set [6] is TNF-α mRNA. Conditions: 10 μM, without LPS.
Protocol: as §4, §5, §6
[7] abbreviates: 168 h, A549, 7 days post exposure, read-out: IC50.
The mark [8] stands for this setting: 168 h, MDA MB 231, 7 days post exposure, read-out: IC50.

Structures are written as SMILES. Read-outs that look alike come from different tables or passages of the source.

As for `COc1cc2c(cc1O)CC[C@@H]1[C@@H]2CC[C@]2(C)[C@@H](O)CC[C@@H]12` [2-Methoxyestradiol, 2-methoxyestradiol, reference compound], the “% Inhibition” value in data set [1] (8.3 μg/CAM, BTO-964 experiment) is listed as 6%; in [1] (8.3 μg/CAM, BTO-967 experiment), 9%; in data set [1] (25 μg/CAM, BTO-964 experiment), 35%; in [1] (25 μg/CAM, BTO-967 experiment) it was 20%; in data set [1] (75 μg/CAM, BTO-964 experiment), 38%; in [1] (75 μg/CAM, BTO-967 experiment), 38%. Also, the “14C-Proline Incorporated into Collagenous Protein (cpm/mg protein) (mean ± S.E.)” value in data set [1] (8.3 μg/CAM, BTO-964 experiment, control 11200 ± 829) turned out to be 10499 ± 1372 cpm/mg_protein; in [1] (8.3 μg/CAM, BTO-967 experiment, control 6300 ± 696), 5711 ± 1469 cpm/mg_protein; in [1] (25 μg/CAM, BTO-964 experiment, control 11200 ± 829) it was 7303 ± 1424 cpm/mg_protein; in data set [1] (25 μg/CAM, BTO-967 experiment, control 6300 ± 696), 5068 ± 1609 cpm/mg_protein; in data set [1] (75 μg/CAM, BTO-964 experiment, control 11200 ± 829), 6984 ± 1022 cpm/mg_protein; in data set [1] (75 μg/CAM, BTO-967 experiment, control 6300 ± 696), 3875 ± 891 cpm/mg_protein.
In the case of `COC(=O)c1cc(I)c(Oc2ccc(OC)cc2)c(I)c1` [BTO-956, methyl 3,5-diiodo-4-(4'-methoxyphenoxy)benzoate], the “effect of metabolism by S9 on activity” value in [2] was “metabolized within the 4-hr incubation period to an inactive form”. Besides, the IC50 was less than 0.3 µM with Ovcar-3 (ovarian); 0.5 µM in data set [3]; 4 µM in data set [4] (setting [7]); 10 µM with MDA MB 231 (breast) (setting [8]); 0.5 µM in the data set with MDA MB 468 (breast); 5 µM in the data set on MCF-7 (breast).
Turning to `O=c1[nH]cc(F)c(=O)[nH]1` [5-FU, 5-Fluorouracil, reference compound], the IC50 in data set [4] (A549, 168 h) was determined as 5.5 µM; with MDA MB 231 (breast) (MDA-MB-231, 168 h), 10 µM.
For `COc1cc2c(c(OC)c1OC)-c1ccc(OC)c(=O)cc1[C@@H](NC(C)=O)CC2` [colchicine, Colchicine], the inhibition at 10 µM with TNF-α mRNA [5] worked out at 68%. In the data set with TNF-α mRNA [6], the “effect on TNF-α mRNA expression” value was “no effect”.
`COCc1cc(I)c(Oc2ccc(OC)cc2)c(I)c1` [BTO-966, 3,5-diiodo-4-(4'-methoxyphenoxy)benzyl methyl ether]: the “effect of metabolism by S9 on activity” value in data set [2] was “activated to more cytotoxic products”. For the same compound, the IC50 is 6.9 µM in the data set with Ovcar-3 (ovarian); greater than 20 µM in data set [3]; greater than 30 µM in data set [4] (setting [7]); 10 µM in the data set on MDA MB 231 (breast) (setting [8]); 7.5 µM with MDA MB 468 (breast); 7 µM with MCF-7 (breast).
